Laboratory results taken from patent US20060069132A1, “Azolecarboxamide herbicides” (priority 2004, published 2006).

What was measured:
barnyardgrass [1] = test: Test B flooded paddy test; assay type: in vivo, Echinochloa crus-galli; conditions: 1000 g ai/ha, scale 0 to 100 (0 no effect, 100 complete control)
Procedure, shortened: (§1)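 Plants grow to 1- to 4-leaf stage (2–18 cm) for postemergence spraying, or to 2-leaf stage for the paddy test. Formulated compound is applied. Greenhouse holding lasts 13–15 days. Response is scored visually relative to controls, 0 no effect to 100 complete control; a dash means no result.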

wild oat = test: Test B postemergence herbicide test; assay type: in vivo, Avena fatua; conditions: postemergence
Procedure, shortened: (§2)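 Formulated test chemicals went onto postemergence plants measuring 2 to 18 cm, at one to four leaves. For the paddy assay, species had reached two leaves. Scoring took place 13–15 days later by eye, relative to untreated plants, using 0 for no effect up to 100 for full control.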

velvetleaf = test: Test B pre-/postemergence herbicide test; assay type: in vivo, Abutilon theophrasti; conditions: for Velvetleaf plant response rating: postemergence
Procedure, shortened: (§3)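 Herbicidal effect was judged by eye on a 0–100 scale after plants stood 13 to 15 days in the greenhouse following pre- or postemergence treatment with surfactant-containing formulations.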

rice [2] = test: Test B flooded paddy test; assay type: in vivo, Oryza sativa; conditions: 1000 g ai/ha, scale 0 to 100 (0 no effect, 100 complete control)
Procedure, shortened: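 Treated at 2-leaf (paddy) or 1–4-leaf, 2–18 cm (postemergence); greenhouse 13–15 d; visual score vs control, 0 none to 100 complete control; dash = not tested.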

pigweed = test: Test B pre-/postemergence herbicide test; assay type: in vivo, Amaranthus retroflexus; conditions: for Pigweed plant response rating: postemergence
Procedure, shortened: as §3

blackgrass = test: Test B postemergence herbicide test; assay type: in vivo, Alopecurus myosuroides; conditions: postemergence, visual rating, scale 0 (no effect) to 100 (complete control)
Procedure, shortened: as §1

cocklebur = test: Test B pre-/postemergence herbicide test; assay type: in vivo, Xanthium strumarium; conditions: for Cocklebur plant response rating: postemergence, scale 0 (no effect) to 100 (complete control)
Procedure, shortened: (§4)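 Species tested were Echinochloa crus-galli, Ipomoea coccinea, Xanthium strumarium and Oryza sativa, treated both before emergence and at the 1- to 4-leaf stage; rice and barnyardgrass were also tested under flooding at 2 leaves. Greenhouse incubation lasted 13–15 days before visual 0–100 scoring.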

giant foxtail = test: Test B pre-/postemergence herbicide test; assay type: in vivo, Setaria faberi; conditions: for Foxtail, Giant plant response rating: postemergence
Procedure, shortened: as §3

Surinam grass = test: Test B pre-/postemergence herbicide test; assay type: in vivo, Urochloa decumbens; conditions: for Surinam Grass plant response rating: postemergence
Procedure, shortened: as §3

corn = test: Test B pre-/postemergence herbicide test; assay type: in vivo, Zea mays; conditions: for Corn plant response rating: postemergence
Procedure, shortened: as §3

ducksalad = test: Test B flooded paddy test; assay type: in vivo, Heteranthera limosa; conditions: 1000 g ai/ha, scale 0 to 100 (0 no effect, 100 complete control)
Procedure, shortened: as §1

morningglory = test: Test B pre-/postemergence herbicide test; assay type: in vivo, Ipomoea coccinea; conditions: for Morningglory plant response rating: postemergence
Procedure, shortened: as §4

rice [3] = test: Test B pre-/postemergence herbicide test; assay type: in vivo, Oryza sativa; conditions: preemergence
Procedure, shortened: as §3

[4] = test system: small flower umbrella sedge; test: Test B flooded paddy test; assay type: in vivo, Cyperus difformis; conditions: 1000 g ai/ha, scale 0 to 100 (0 no effect, 100 complete control)
Procedure, shortened: as §1

lambsquarters = test: Test B pre-/postemergence herbicide test; assay type: in vivo, Chenopodium album; conditions: for Plant response rating, Lambsquarters: preemergence; for Lambsquarters plant response rating: postemergence
Procedure, shortened: as §3

large crabgrass = test: Test B pre-/postemergence herbicide test; assay type: in vivo, Digitaria sanguinalis; conditions: for Crabgrass, Large plant response rating: postemergence
Procedure, shortened: as §3

barnyardgrass [5] = test: Test B pre-/postemergence herbicide test; assay type: in vivo, Echinochloa crus-galli; conditions: for Barnyardgrass plant response rating: postemergence, scale 0 (no effect) to 100 (complete control)
Procedure, shortened: as §4

wheat = test: Test B postemergence herbicide test; assay type: in vivo, Triticum aestivum; design: key to Wheat plant response rating: 0 = no effect, 100 = complete control; conditions: postemergence
Procedure, shortened: as §2

[6] = 125 g ai/ha, visual rating, scale 0 (no effect) to 100 (complete control)
[7] = 500 g ai/ha, scale 0 to 100, 0 is no effect, 100 is complete control
[8] = 125 g ai/ha, 0 = no effect, 100 = complete control, preemergence
[9] = 500 g ai/ha, visual rating, 0 = no effect, 100 = complete control, preemergence
[10] = 500 g ai/ha, visual rating, 0 = no effect, 100 = complete control
[11] = 500 g ai/ha, visual rating, scale 0 (no effect) to 100 (complete control)
[12] = 500 g ai/ha, visual rating 0-100, 0 no effect, 100 complete control, preemergence
[13] = preemergence, 125 g ai/ha, 0 to 100 scale, 0 is no effect, 100 is complete control
[14] = 500 g ai/ha, visual rating 0-100, 0 no effect, 100 complete control
[15] = 125 g ai/ha, 0 to 100 scale, 0 is no effect, 100 is complete control

CCN(C)C(=O)c1cc(NC(=O)c2cc(C(C)(C)C)nn2CC)c(F)cc1F [Compound 254]
Barnyardgrass plant response rating (barnyardgrass [1]): 30 | Oat, Wild plant response rating (wild oat; [6]): 20 | Oat, Wild plant response rating (wild oat; [7]): 20 | Velvetleaf plant response rating (0 to 100 scale) (velvetleaf; [8]): 0 | Plant response rating, Velvetleaf (velvetleaf; [9]): 20 | Velvetleaf plant response rating (velvetleaf; [6]): 10 | Velvetleaf plant response rating (velvetleaf; [7]): 10 | Rice plant response rating (rice [2]): 80 | Pigweed plant response rating (0 to 100 scale) (pigweed; [8]): 0 | Plant response rating, Pigweed (pigweed; [9]): 100 | Pigweed plant response rating (pigweed; [6]): 10 | Pigweed plant response rating (pigweed; [7]): 30 | Blackgrass plant response rating (blackgrass; 125 g ai/ha): 0 | Blackgrass plant response rating (blackgrass; 500 g ai/ha): 10 | Cocklebur plant response rating (0 to 100 scale) (cocklebur; [8]): 0 | Plant response rating, Cocklebur (cocklebur; [9]): 0 | Cocklebur plant response rating (cocklebur; 125 g ai/ha, visual rating): 20 | Cocklebur plant response rating (cocklebur; 500 g ai/ha, visual rating): 20 | Foxtail, Giant plant response rating (0 to 100 scale) (giant foxtail; [8]): 0 | Plant response rating, Foxtail, Giant (giant foxtail; [9]): 30 | Foxtail, Giant plant response rating (giant foxtail; [6]): 0 | Foxtail, Giant plant response rating (giant foxtail; [7]): 0 | Surinam Grass plant response rating (0 to 100 scale) (Surinam grass; [8]): 0 | Plant response rating, Surinam Grass (Surinam grass; [9]): 40 | Surinam Grass plant response rating (Surinam grass; [6]): 10 | Surinam Grass plant response rating (Surinam grass; [7]): 10 | Corn plant response rating (0 to 100 scale) (corn; [8]): 0 | Plant response rating, Corn (corn; [9]): 0 | Corn plant response rating (corn; [6]): 0 | Corn plant response rating (corn; [7]): 10 | Ducksalad plant response rating (ducksalad): 90 | Morningglory plant response rating (0 to 100 scale) (morningglory; [8]): 0 | Plant response rating, Morningglory (morningglory; [9]): 10 | Morningglory plant response rating (morningglory; [6]): 20 | Morningglory plant response rating (morningglory; [7]): 30 | Rice plant response rating (0 to 100 scale) (rice [3]; 125 g ai/ha, 0 = no effect, 100 = complete control): 0 | Plant response rating, Rice (rice [3]; [10]): 20 | Sedge, Umbrella plant response rating [4]: 60 | Plant response rating, Lambsquarters (lambsquarters; [10]): 100 | Lambsquarters plant response rating (lambsquarters; [6]): 10 | Lambsquarters plant response rating (lambsquarters; [7]): 20 | Crabgrass, Large plant response rating (0 to 100 scale) (large crabgrass; [8]): 10 | Plant response rating, Crabgrass, Large (large crabgrass; [9]): 100 | Crabgrass, Large plant response rating (large crabgrass; [6]): 10 | Crabgrass, Large plant response rating (large crabgrass; [7]): 10 | Barnyardgrass plant response rating (0 to 100 scale) (barnyardgrass [5]; [8]): 0 | Plant response rating, Barnyardgrass (barnyardgrass [5]; [9]): 40 | Barnyardgrass plant response rating (barnyardgrass [5]; 125 g ai/ha, visual rating): 0 | Barnyardgrass plant response rating (barnyardgrass [5]; 500 g ai/ha, visual rating): 10 | Wheat plant response rating (wheat; [6]): 10 | Wheat plant response rating (wheat; [7]): 20

C=CCN(C)C(=O)c1cccc(NC(=O)c2cc(C(C)(C)C)nn2CC)n1 [Compound 163]
Barnyardgrass plant response rating (barnyardgrass [1]; visual rating, 13 to 15 days): 70 | Oat, Wild plant response rating (wild oat; [6]): 10 | Oat, Wild plant response rating (wild oat; [11]): 30 | Plant response rating, Velvetleaf (velvetleaf; [12]): 90 | Velvetleaf plant response rating (velvetleaf; [6]): 40 | Velvetleaf plant response rating (velvetleaf; [11]): 80 | Plant response rating, Velvetleaf (velvetleaf; [13]): 70 | Rice plant response rating (rice [2]; visual rating, 13 to 15 days): 60 | Plant response rating, Pigweed (pigweed; [12]): 100 | Pigweed plant response rating (pigweed; [6]): 60 | Pigweed plant response rating (pigweed; [11]): 80 | Plant response rating, Pigweed (pigweed; [13]): 90 | Blackgrass plant response rating (blackgrass; 125 g ai/ha): 10 | Blackgrass plant response rating (blackgrass; 500 g ai/ha): 50 | Plant response rating, Cocklebur (cocklebur; [12]): 70 | Cocklebur plant response rating (cocklebur; 125 g ai/ha, visual rating): 10 | Cocklebur plant response rating (cocklebur; 500 g ai/ha, visual rating): 60 | Plant response rating, Cocklebur (cocklebur; [13]): 70 | Plant response rating, Foxtail, Giant (giant foxtail; [12]): 80 | Foxtail, Giant plant response rating (giant foxtail; [6]): 0 | Foxtail, Giant plant response rating (giant foxtail; [11]): 40 | Plant response rating, Foxtail, Giant (giant foxtail; [13]): 20 | Plant response rating, Surinam Grass (Surinam grass; [12]): 70 | Surinam Grass plant response rating (Surinam grass; [6]): 0 | Surinam Grass plant response rating (Surinam grass; [11]): 40 | Plant response rating, Surinam Grass (Surinam grass; [13]): 50 | Plant response rating, Corn (corn; [12]): 40 | Corn plant response rating (corn; [6]): 0 | Corn plant response rating (corn; [11]): 0 | Plant response rating, Corn (corn; [13]): 0 | Ducksalad plant response rating (ducksalad; visual rating, 13 to 15 days): 80 | Plant response rating, Morningglory (morningglory; [12]): 70 | Morningglory plant response rating (morningglory; [6]): 0 | Morningglory plant response rating (morningglory; [11]): 0 | Plant response rating, Morningglory (morningglory; [13]): 60 | Plant response rating, Rice (rice [3]; [14]): 80 | Plant response rating, Rice (rice [3]; [15]): 80 | Sedge, Umbrella plant response rating ([4]; visual rating, 13 to 15 days): 70 | Plant response rating, Lambsquarters (lambsquarters; [14]): 100 | Lambsquarters plant response rating (lambsquarters; [6]): 50 | Lambsquarters plant response rating (lambsquarters; [11]): 80 | Plant response rating, Lambsquarters (lambsquarters; [15]): 80 | Plant response rating, Crabgrass, Large (large crabgrass; [12]): 90 | Crabgrass, Large plant response rating (large crabgrass; [6]): 20 | Crabgrass, Large plant response rating (large crabgrass; [11]): 40 | Plant response rating, Crabgrass, Large (large crabgrass; [13]): 60 | Plant response rating, Barnyardgrass (barnyardgrass [5]; [12]): 90 | Barnyardgrass plant response rating (barnyardgrass [5]; 125 g ai/ha, visual rating): 0 | Barnyardgrass plant response rating (barnyardgrass [5]; 500 g ai/ha, visual rating): 0 | Plant response rating, Barnyardgrass (barnyardgrass [5]; [13]): 60 | Wheat plant response rating (wheat; [11]): 10
